These compounds were tested against recombinant Mcl-1 (residues 172-327) (Homo sapiens (Human), UniProt Q07820) (assay: Bak peptide fluorescence polarization anisotropy competition assay, Mcl-1). Conditions: Table 2, Ki range; FITC-Bak peptide 10 nM, Mcl-1 14 nM; read-out: Ki for inhibition of Mcl-1.
Type: binding

Chain of recombinant Mcl-1 (residues 172-327) (Q07820 172-327): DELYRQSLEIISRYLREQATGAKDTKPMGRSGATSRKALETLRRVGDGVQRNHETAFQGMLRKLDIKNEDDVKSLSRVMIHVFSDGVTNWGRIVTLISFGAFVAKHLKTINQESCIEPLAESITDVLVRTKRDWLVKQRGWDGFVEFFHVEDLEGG

SMILES | Ki
CC(=O)N1CCN(c2ccc(OCc3nn(C)c(C)c3-c3cccc4c(CCCOc5cc(C)c(Cl)c(C)c5)c(C(=O)NS(=O)(=O)c5ccccc5)n(Cc5cccnc5)c34)cc2)CC1 [Example 124, 7-(3-((4-(4-acetylpiperazin-1-yl)phenoxy)methyl)-1,5-dimethyl-1H-pyrazol-4-yl)-3-(3-(4-chloro-3,5-dimethylphenoxy)propyl)-N-(phenylsulfonyl)-1-(pyridin-3-ylmethyl)-1H-indole-2-carboxamide] | ≤ 0.1 µM
Cc1cc(OCCCc2c(C(=O)NS(=O)(=O)c3ccc(CO)o3)[nH]c3cc(Cl)ccc23)cc(C)c1Cl [Example 260, -chloro-3-(3-(4-chloro-3,5-dimethylphenoxy)propyl)-N-((5-(hydroxymethyl)furan-2-yl)sulfonyl)-1H-indole-2-carboxamide] | ≤ 0.1 µM
COCc1nn(C)c(C)c1-c1cccc2c(CCCOc3cc(C)c(Cl)c(C)c3)c(C(=O)NS(=O)(=O)c3ccccc3)[nH]c12 [Example 130, 3-(3-(4-chloro-3,5-dimethylphenoxy)propyl)-7-(3-(methoxymethyl)-1,5-dimethyl-1H-pyrazol-4-yl)-N-(phenylsulfonyl)-1H-indole-2-carboxamide] | ≤ 0.1 µM
COc1ccncc1-c1cccc2c(CCCOc3cc(C)c(Cl)c(C)c3)c(C(=O)NS(=O)(=O)c3ccccc3)[nH]c12 [Example 90, 3-(3-(4-chloro-3,5-dimethylphenoxy)propyl)-7-(4-methoxypyridin-3-yl)-N-(phenylsulfonyl)-1H-indole-2-carboxamide] | ≤ 0.1 µM

Same assay, conditions: read-out: Ki for inhibition of Mcl-1

SMILES | Ki
Cc1cc(OCCCc2c(C(=O)NS(=O)(=O)CCNC(=O)c3cccn3Cc3ccccc3)[nH]c3cc(Cl)ccc23)cc(C)c1Cl [Example 241, N-((2-(1-benzyl-1H-pyrrole-2-carboxamido)ethyl)sulfonyl)-6-chloro-3-(3-(4-chloro-3,5-dimethylphenoxy)propyl)-1H-indole-2-carboxamide] | 0.101 to 0.299 µM
Cc1cc(OCCCc2c(C(=O)NS(=O)(=O)Cc3ccccc3)[nH]c3cc(Cl)ccc23)cc(C)c1Cl [Example 66, N-(benzylsulfonyl)-6-chloro-3-(3-(4-chloro-3,5-dimethylphenoxy)propyl)-1H-indole-2-carboxamide] | 0.101 to 0.299 µM
COCc1nn(C)c(C)c1-c1cccc2c(CCCOc3cc(C)c(Cl)c(C)c3)c(C(=O)NS(=O)(=O)c3ccccc3)n(C)c12 [Example 129, 3-(3-(4-chloro-3,5-dimethylphenoxy)propyl)-7-(3-(methoxymethyl)-1,5-dimethyl-1H-pyrazol-4-yl)-1-methyl-N-(phenylsulfonyl)-1H-indole-2-carboxamide] | 0.101 to 0.299 µM
O=C(O)c1sc2cc(-c3ccccc3)ccc2c1CCCOc1cccc2ccccc12 [Example 13, 3-(3-(naphthalen-1-yloxy)propyl)-6-phenylbenzo[b]thiophene-2-carboxylic acid] | 1 to 9.99 µM
Cc1cc(OCCCc2c(C(=O)NS(=O)(=O)CCNC(=O)c3cccn3Cc3ccc(F)cc3)[nH]c3cc(Cl)ccc23)cc(C)c1Cl [Example 242, 6-chloro-3-(3-(4-chloro-3,5-dimethylphenoxy)propyl)-N-((2-(1-(4-fluorobenzyl)-1H-pyrrole-2-carboxamido)ethyl)sulfonyl)-1H-indole-2-carboxamide] | 0.101 to 0.299 µM
Cc1cc(OCCCc2c(C(=O)NS(=O)(=O)CCNC(=O)c3ccc4ccccc4c3)[nH]c3ccccc23)cc(C)c1Cl [Example 162, N-((2-(2-naphthamido)ethyl)sulfonyl)-3-(3-(4-chloro-3,5-dimethylphenoxy)propyl)-1H-indole-2-carboxamide] | 0.301 to 0.5 µM
Cc1cccc(OCCCc2c(C(=O)NS(C)(=O)=O)[nH]c3ccccc23)c1 [Example 31, N-(methylsulfonyl)-3-(3-(m-tolyloxy)propyl)-1H-indole-2-carboxamide] | 10 to 50 µM
Cc1cc(OCCCc2c(C(=O)NS(=O)(=O)CCNC(=O)c3ccno3)[nH]c3ccccc23)cc(C)c1Cl [Example 154, N-(2-(N-(3-(3-(4-chloro-3,5-dimethylphenoxy)propyl)-1H-indole-2-carbonyl)sulfamoyl)ethyl)isoxazole-5-carboxamide] | 0.501 to 0.999 µM
CC(=O)NCCS(=O)(=O)NC(=O)c1[nH]c2cc(Cl)ccc2c1CCCOc1cc(C)c(Cl)c(C)c1 [Example 251, N-((2-acetamidoethyl)sulfonyl)-6-chloro-3-(3-(4-chloro-3,5-dimethylphenoxy)propyl)-1H-indole-2-carboxamide] | 0.101 to 0.299 µM
CS(=O)(=O)NC(=O)c1[nH]c2cccc(C(F)(F)F)c2c1CCCOc1cccc2ccccc12 [Example 81, N-(methylsulfonyl)-3-(3-(naphthalen-1-yloxy)propyl)-4-(trifluoromethyl)-1H-indole-2-carboxamide] | 0.301 to 0.5 µM
Cc1cc(OCCCc2c(C(=O)NS(=O)(=O)CCNC(=O)c3c(C)nn(C)c3C)[nH]c3ccccc23)cc(C)c1Cl [Example 183, 3-(3-(4-chloro-3,5-dimethylphenoxy)propyl)-N-((2-(1,3,5-trimethyl-1H-pyrazole-4-carboxamido)ethyl)sulfonyl)-1H-indole-2-carboxamide] | 1 to 9.99 µM
Cc1cc(OCCCc2c(C(=O)NS(=O)(=O)CCCNC(=O)c3cccn3Cc3ccccc3)[nH]c3cc(Cl)ccc23)cc(C)c1Cl [Example 258, N-((3-(1-benzyl-1H-pyrrole-2-carboxamido)propyl)sulfonyl)-6-chloro-3-(3-(4-chloro-3,5-dimethylphenoxy)propyl)-1H-indole-2-carboxamide] | 0.101 to 0.299 µM
Cc1cc(OCCCc2c(C(=O)NS(=O)(=O)CCOc3ccccc3)[nH]c3ccccc23)cc(C)c1Cl [Example 141, 3-(3-(4-chloro-3,5-dimethylphenoxy)propyl)-N-((2-phenoxyethyl)sulfonyl)-1H-indole-2-carboxamide] | 0.301 to 0.5 µM
Cc1cc(OCCCc2c(C(=O)NS(=O)(=O)CCNC(=O)C3CCCCC3)n(Cc3cccnc3)c3cc(Cl)ccc23)cc(C)c1Cl [Example 275, 6-chloro-3-(3-(4-chloro-3,5-dimethylphenoxy)propyl)-N-((2-(cyclohexanecarboxamido)ethyl)sulfonyl)-1-(pyridin-3-ylmethyl)-1H-indole-2-carboxamide] | 0.101 to 0.299 µM
Cc1cc(OCCCc2c(C(=O)NS(=O)(=O)CCNC(=O)c3ccoc3)[nH]c3ccccc23)cc(C)c1Cl [Example 158, 3-(3-(4-chloro-3,5-dimethylphenoxy)propyl)-N-((2-(furan-3-carboxamido)ethyl)sulfonyl)-1H-indole-2-carboxamide] | 0.101 to 0.299 µM
Cc1cc(OCCCc2c(C(=O)NS(=O)(=O)CCNC(=O)c3cc(Br)no3)[nH]c3ccccc23)cc(C)c1Cl [Example 185, 3-bromo-N-(2-(N-(3-(3-(4-chloro-3,5-dimethylphenoxy)propyl)-1H-indole-2-carbonyl)sulfamoyl)ethyl)isoxazole-5-carboxamide] | 0.501 to 0.999 µM
COCc1nn(C)c(C)c1-c1cccc2c(CCCOc3cc(C)c(Cl)c(C)c3)c(C(=O)NS(=O)(=O)c3ccccc3)n(Cc3cccnc3)c12 [Example 128, 3-(3-(4-Chloro-3,5-dimethylphenoxy)propyl)-7-(3-(methoxymethyl)-1,5-dimethyl-1H-pyrazol-4-yl)-N-(phenylsulfonyl)-1-(pyridin-3-ylmethyl)-1H-indole-2-carboxamide] | 0.101 to 0.299 µM
Cc1cc(OCCCc2c(C(=O)NS(=O)(=O)C3CCN(C(=O)c4cccc(Oc5ccccc5)c4)CC3)[nH]c3cc(Cl)ccc23)cc(C)c1Cl [Example 213, 6-chloro-3-(3-(4-chloro-3,5-dimethylphenoxy)propyl)-N-((1-(3-phenoxybenzoyl)piperidin-4-yl)sulfonyl)-1H-indole-2-carboxamide] | 0.301 to 0.5 µM
O=C(O)c1sc2ccccc2c1CCCc1cccc2ccccc12 [Example 63, 3-(3-(naphthalen-1-yl)propyl)benzo[b]thiophene-2-carboxylic acid] | 1 to 9.99 µM
O=C(O)c1oc2ccccc2c1CCCc1cccc2ccccc12 [Example 22, 3-(3-(naphthalen-1-yl)propyl)benzofuran-2-carboxylic acid] | 10 to 50 µM
COc1ccc(S(=O)(=O)NC(=O)c2[nH]c3ccccc3c2CCCOc2cc(C)c(Cl)c(C)c2)c(OC)c1 [Example 138, 3-(3-(4-chloro-3,5-dimethylphenoxy)propyl)-N-((2,4-dimethoxyphenyl)sulfonyl)-1H-indole-2-carboxamide] | 0.301 to 0.5 µM
Cc1cc(OCCCc2c(C(=O)NS(C)(=O)=O)[nH]c3ccccc23)cc(C)c1Cl [Example 29, 3-(3-(4-chloro-3,5-dimethylphenoxy)propyl)-N-(methylsulfonyl)-1H-indole-2-carboxamide] | 0.501 to 0.999 µM
Cc1ccc(C(=O)NCCS(=O)(=O)NC(=O)c2[nH]c3ccccc3c2CCCOc2cc(C)c(Cl)c(C)c2)o1 [Example 157, 3-(3-(4-chloro-3,5-dimethylphenoxy)propyl)-N-((2-(5-methylfuran-2-carboxamido)ethyl)sulfonyl)-1H-indole-2-carboxamide] | 0.101 to 0.299 µM
Cc1cc(OCCCc2c(C(=O)NS(=O)(=O)CCNC(=O)c3nccn3Cc3ccccc3)[nH]c3ccccc23)cc(C)c1Cl [Example 173, N-((2-(1-benzyl-1H-imidazole-2-carboxamido)ethyl)sulfonyl)-3-(3-(4-chloro-3,5-dimethylphenoxy)propyl)-1H-indole-2-carboxamide] | 0.501 to 0.999 µM
Cc1cc(OCCCc2c(C(=O)NS(=O)(=O)CCNC(=O)c3ccco3)[nH]c3ccccc23)cc(C)c1Cl [Example 171, 3-(3-(4-chloro-3,5-dimethylphenoxy)propyl)-N-((2-(furan-2-carboxamido)ethyl)sulfonyl)-1H-indole-2-carboxamide] | 0.101 to 0.299 µM
Cc1cc(OCCCc2c(C(=O)NS(C)(=O)=O)[nH]c3c(Br)cccc23)cc(C)c1Cl [Example 83, 7-bromo-3-(3-(4-chloro-3,5-dimethylphenoxy)propyl)-N-(methylsulfonyl)-1H-indole-2-carboxamide] | 0.301 to 0.5 µM
Cc1cc(OCCCc2c(C(=O)NS(=O)(=O)CCNC(=O)C34CC5CC(CC(C5)C3)C4)[nH]c3ccccc23)cc(C)c1Cl [Example 180, N-((2-((3r,5r,7r)-adamantane-1-carboxamido)ethyl)sulfonyl)-3-(3-(4-chloro-3,5-dimethylphenoxy)propyl)-1H-indole-2-carboxamide] | 0.101 to 0.299 µM

Source: patent US10844032B2, “Substituted benzofuran, benzothiophene and indole Mcl-1 inhibitors” (Vanderbilt University, priority 2012, dated 2020)
